Details: 283.16 K, Liquid, Vibrating tube method

CCCC(=O)OCC(COC(=O)CCC)(COC(=O)CCC)COC(=O)CCC [pentaerythritol tetrabutyrate]
Details | mass density [kg/m3]
13019 kPa | 1066.7
13044 kPa | 1066.7
13070 kPa | 1066.6
13101 kPa | 1066.6
13127 kPa | 1066.5
13208 kPa | 1066.8
13264 kPa | 1066.8
13291 kPa | 1066.8
13317 kPa | 1066.7
13343 kPa | 1066.8
13374 kPa | 1066.8
13401 kPa | 1066.8
13427 kPa | 1066.8
13460 kPa | 1066.8
13487 kPa | 1066.9
13514 kPa | 1066.9
13541 kPa | 1066.9
13574 kPa | 1066.9
13601 kPa | 1066.9
13628 kPa | 1066.9
13661 kPa | 1067
13689 kPa | 1066.9
13722 kPa | 1067.2
13750 kPa | 1067
13778 kPa | 1067
13807 kPa | 1067.1
13841 kPa | 1067
13870 kPa | 1067.1
13927 kPa | 1067.1
13962 kPa | 1067
13990 kPa | 1067.2
14025 kPa | 1067.1
14054 kPa | 1067.1
14084 kPa | 1067.2
14113 kPa | 1067.2
14149 kPa | 1067.3
14178 kPa | 1067.2
14208 kPa | 1067.2
14245 kPa | 1067.2
14275 kPa | 1067.3
14306 kPa | 1067.5
14343 kPa | 1067.3
14374 kPa | 1067.3
14405 kPa | 1067.4
14436 kPa | 1067.4
14474 kPa | 1067.4
14504 kPa | 1067.4
14536 kPa | 1067.5
14574 kPa | 1067.4
14605 kPa | 1067.5
14638 kPa | 1067.5
14677 kPa | 1067.4
14709 kPa | 1067.5
14741 kPa | 1067.6
14774 kPa | 1067.5
14814 kPa | 1067.7
14846 kPa | 1067.6
14886 kPa | 1067.6
14919 kPa | 1067.6
14952 kPa | 1067.7
14985 kPa | 1067.6
15026 kPa | 1067.6
15059 kPa | 1067.8
15094 kPa | 1067.7
15136 kPa | 1067.7
15170 kPa | 1067.7
15205 kPa | 1067.7
15246 kPa | 1067.9
15282 kPa | 1067.9
15317 kPa | 1067.9
15359 kPa | 1067.8
15394 kPa | 1067.9
15430 kPa | 1068
15473 kPa | 1067.9
15545 kPa | 1067.9
15944 kPa | 1068.3
15983 kPa | 1068.2
16022 kPa | 1068.3
16069 kPa | 1068.4
16110 kPa | 1068.4
16153 kPa | 1068.4
16192 kPa | 1068.3
16240 kPa | 1068.4
16281 kPa | 1068.3
16322 kPa | 1068.3
16363 kPa | 1068.4
16414 kPa | 1068.4
16456 kPa | 1068.5
16498 kPa | 1068.5
16547 kPa | 1068.6
16580 kPa | 1068.5
16614 kPa | 1068.6
16656 kPa | 1068.6
16691 kPa | 1068.8
16726 kPa | 1068.6
16769 kPa | 1068.7
16805 kPa | 1068.8
16839 kPa | 1068.7
16871 kPa | 1068.8
16898 kPa | 1068.8
16924 kPa | 1068.6
16956 kPa | 1068.8
16983 kPa | 1068.7
17011 kPa | 1068.9
17044 kPa | 1068.9
17074 kPa | 1068.9
17104 kPa | 1068.8
17139 kPa | 1069
17162 kPa | 1068.9
17182 kPa | 1068.8
17202 kPa | 1069
17225 kPa | 1068.9
17237 kPa | 1069
17246 kPa | 1069
17257 kPa | 1069
17266 kPa | 1069
17275 kPa | 1068.9
17284 kPa | 1068.8
17295 kPa | 1069
17304 kPa | 1068.9
17313 kPa | 1069.1
17322 kPa | 1069.1
17333 kPa | 1069.1
17342 kPa | 1069
17352 kPa | 1069
17362 kPa | 1069.1
17371 kPa | 1069
17380 kPa | 1069.1
17391 kPa | 1069.1
17400 kPa | 1069
17411 kPa | 1069
17420 kPa | 1069
17429 kPa | 1069.2
17440 kPa | 1069.1
17449 kPa | 1069.1
17458 kPa | 1069
17469 kPa | 1069.1
17478 kPa | 1069.1
17487 kPa | 1069
17498 kPa | 1069.2
17508 kPa | 1069.1
17517 kPa | 1069.1
17528 kPa | 1069.1
17538 kPa | 1069.1
17547 kPa | 1069.1
17556 kPa | 1069.2
17568 kPa | 1069.2
17577 kPa | 1069.2
17586 kPa | 1069.2
17598 kPa | 1069.1
17607 kPa | 1069.2
17618 kPa | 1069.1
17628 kPa | 1069.2
17637 kPa | 1069.2
17646 kPa | 1069.1
17658 kPa | 1069.1
17668 kPa | 1069.2
17678 kPa | 1069.3
17687 kPa | 1069.2
17698 kPa | 1069.3
17708 kPa | 1069.2
17717 kPa | 1069.2
17790 kPa | 1069.3
17800 kPa | 1069.4
17810 kPa | 1069.3
17820 kPa | 1069.2
17831 kPa | 1069.3
17841 kPa | 1069.3
17850 kPa | 1069.3
17862 kPa | 1069.3
17872 kPa | 1069.3
17882 kPa | 1069.3
17892 kPa | 1069.3
17903 kPa | 1069.4
17913 kPa | 1069.3
17922 kPa | 1069.4
17935 kPa | 1069.4
17944 kPa | 1069.4
17954 kPa | 1069.3
17966 kPa | 1069.4
17976 kPa | 1069.5
17986 kPa | 1069.4
17997 kPa | 1069.4
18007 kPa | 1069.4
18017 kPa | 1069.5
18029 kPa | 1069.4
18039 kPa | 1069.5
18049 kPa | 1069.3
18061 kPa | 1069.4
18071 kPa | 1069.4
18081 kPa | 1069.5
18157 kPa | 1069.4
18188 kPa | 1069.4
18199 kPa | 1069.5
18209 kPa | 1069.5
18219 kPa | 1069.6
18231 kPa | 1069.6
18241 kPa | 1069.4
18254 kPa | 1069.5
18286 kPa | 1069.5
18361 kPa | 1069.6
18371 kPa | 1069.7
18381 kPa | 1069.5
18394 kPa | 1069.7
18404 kPa | 1069.6
18414 kPa | 1069.7
18426 kPa | 1069.5
18436 kPa | 1069.6
18449 kPa | 1069.6
18459 kPa | 1069.6
18469 kPa | 1069.7
18480 kPa | 1069.6
18492 kPa | 1069.7
18502 kPa | 1069.7
18513 kPa | 1069.7
18525 kPa | 1069.7
18536 kPa | 1069.7
18548 kPa | 1069.7
18559 kPa | 1069.6
18569 kPa | 1069.6
18579 kPa | 1069.8
18592 kPa | 1069.7
18603 kPa | 1069.8
18614 kPa | 1069.7
18627 kPa | 1069.6
18637 kPa | 1069.7
18648 kPa | 1069.8
18658 kPa | 1069.7
18669 kPa | 1069.7
18682 kPa | 1069.8
18692 kPa | 1069.7
18703 kPa | 1069.8
18716 kPa | 1069.7
18726 kPa | 1069.8
18737 kPa | 1069.8
18750 kPa | 1069.8
18761 kPa | 1069.7
18772 kPa | 1069.7
18783 kPa | 1069.8
18794 kPa | 1069.8
18806 kPa | 1069.8
18817 kPa | 1069.9
18830 kPa | 1069.9
18841 kPa | 1069.9
18851 kPa | 1069.8
18875 kPa | 1069.9
18886 kPa | 1069.9
18910 kPa | 1069.9
18921 kPa | 1069.9
18934 kPa | 1069.9
18945 kPa | 1069.9
19002 kPa | 1069.9
19015 kPa | 1069.9
19026 kPa | 1070
19039 kPa | 1070
19050 kPa | 1070
19062 kPa | 1070
19073 kPa | 1070
19084 kPa | 1069.9
19097 kPa | 1070
19108 kPa | 1070.1
19119 kPa | 1070.1
19132 kPa | 1070.1
19154 kPa | 1069.9
19168 kPa | 1070
19179 kPa | 1070.1
19190 kPa | 1070
19204 kPa | 1070
19215 kPa | 1070.1
19226 kPa | 1070.1
19240 kPa | 1070.1
19251 kPa | 1070.1
19262 kPa | 1070.1
19274 kPa | 1070.1
19287 kPa | 1070.1
19299 kPa | 1070
19310 kPa | 1070.2
19323 kPa | 1070.1
19335 kPa | 1070.2
19408 kPa | 1070.2
19444 kPa | 1070.2
19482 kPa | 1070.2
19493 kPa | 1070.2
19507 kPa | 1070.1
19518 kPa | 1070.1
19530 kPa | 1070.2
19544 kPa | 1070.2
19556 kPa | 1070.1
19568 kPa | 1070.3
19579 kPa | 1070.3
19593 kPa | 1070.2
19605 kPa | 1070.3

Reference: the NIST ThermoML archive (doi:10.1021/je060271a)
